Experimental data: patent publication US20260374766A1, “METHODS FOR TREATING CANCER” (Antares Therapeutics, Inc., priority 2022, published 2026)
Like-named read-outs stand apart in the source and are kept apart here.

Legend:
H1299 p53 R273H = assay: Cell Proliferation Assay (CellTiter-Glo, CTG), H1299 p53 R273H (NClH1299-inducible p53 R273H); format: cell-based; conditions: Homo sapiens, NCI-H1299, 120 h, NClH1299-inducible p53 R273H cells, 5 days
Outline: (§1)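 NClH1299 lines stably transduced with Tet-inducible p53 Y220C or R273H, plus NUGC3, were treated with compound for 5 days at 250-500 cells/well. IC50 derived from CellTiter-Glo luminescent signal after 10 min room-temperature incubation.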

H1299 p53 Y220C = assay: Cell Proliferation Assay (CellTiter-Glo, CTG), H1299 p53 Y220C (NClH1299-inducible p53 Y220C); format: cell-based; conditions: Homo sapiens, NCI-H1299, 120 h, NClH1299-inducible p53 Y220C cells, 5 days
Outline: as §1

p53 Y220C = p53 Y220C (Homo sapiens, UniProt P04637, Y220C); assay: Luciferase Reporter Assay (Luc), p53 response element, NClH1299 cells with inducible p53 Y220C; format: cell-based; conditions: 6 hour; for AC50: read-out: Luc P53 Y220C AC50
Outline: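 24 h dox pre-induction (0.5 ug/mL), then 6 h compound; One-Glo luminescent read.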

[1] = biological target: T1, p53 Y220C mutant protein (amino acid residues 94-293) (Homo sapiens, UniProt P04637, Y220C); assay: Surface Plasmon Resonance (SPR) assay, Kd_kinetic; format: binding; conditions: read-out: SPR P53 Y220C KD kinetic
T1 construct: p53 Y220C mutant protein (amino acid residues 94-293)
Outline: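 Temperature held at 16 or 20 °C during Biacore 8K runs. Buffer: 50 mM Tris, pH 7.5, 100 mM NaCl, 1 mM DTT, 0.01% Brij35, 0.05% Tween-20, 1% DMSO.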

NUGC3 p53 Y220C = assay: Cell Proliferation Assay (CellTiter-Glo, CTG), NUGC3 p53 Y220C; format: cell-based; conditions: Homo sapiens, NUGC-3, 120 h, NUGC3 cells, 5 days
Outline: as §1

[2] = luciferase reporter, NClH1299 inducible p53 Y220C
[3] = NClH1299 cells with inducible p53 Y220C
[4] = NClH1299 cells with inducible p53 Y220C, 10 uM tool compound as positive control

T1 sequence (P04637 94-293, stated change not applied): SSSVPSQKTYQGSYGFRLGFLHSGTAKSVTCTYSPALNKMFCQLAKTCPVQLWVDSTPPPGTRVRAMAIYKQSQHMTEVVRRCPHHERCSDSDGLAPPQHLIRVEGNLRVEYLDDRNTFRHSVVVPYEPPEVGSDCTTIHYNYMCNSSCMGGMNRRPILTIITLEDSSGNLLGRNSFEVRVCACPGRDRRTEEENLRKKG

Structure (SMILES) | IC50 (H1299 p53 R273H; CellTiter-Glo) | IC50 (H1299 p53 Y220C; CellTiter-Glo) | AC50 (p53 Y220C; [2]) | Emax (p53 Y220C; [2]) | Kd ([1]; SPR, p53 Y220C) | IC50 (H1299 p53 R273H) | IC50 (H1299 p53 Y220C) | AC50 (p53 Y220C; [3]) | Emax (p53 Y220C; [4]) | Kd [1] | IC50 (NUGC3 p53 Y220C; CellTiter-Glo) | IC50 (NUGC3 p53 Y220C)
CNC(=O)c1cc(NCC#Cc2cc3c(N[C@@H]4CCN(C)C[C@@H]4F)cccn3c2SC(F)(F)F)c2cncn2c1 [Example 479] | – | – | – | – | < 10 nM | ≥ 10 µM | < 750 nM | < 750 nM | > 90% | – | – | < 750 nM
CNC(=O)c1ccc(NCC#Cc2nc3c(N[C@@H]4CCN(C)C[C@@H]4F)cccn3c2SC(F)(F)F)c(F)c1 [Example 311] | 5 to 8 µM | < 750 nM | < 750 nM | > 90% | < 10 nM | – | – | – | – | – | < 750 nM | –
COc1ccc(C(=O)NCC2CN(C)C2)cc1NCC#Cc1nc2c(N[C@@H]3CCOC[C@@H]3F)cccn2c1SC(F)(F)F [Example 228] | ≥ 10 µM | > 3000 nM | > 3000 nM | < 70% | < 10 nM | – | – | – | – | – | < 750 nM | –
CNC(=O)c1ccc(NCC#Cc2cc3c(N[C@@H]4CCN(C)C[C@@H]4F)cccn3c2SC(F)(F)F)c(OC)n1 [Example 433, 5-{[3-(8-{[(3S,4R)-3-fluoro-1-methylpiperidin-4-yl]amino}-3-[(trifluoromethyl)sulfanyl]indolizin-2-yl)prop-2-yn-1-yl]amino}-6-methoxy-N-methylpyridine-2-carboxamide] | 5 to 8 µM | < 750 nM | < 750 nM | > 90% | < 10 nM | – | – | – | – | – | < 750 nM | –
CNC(=O)c1ccc(NCC#Cc2nc3c(N[C@@H]4CCOC[C@@H]4F)cccn3c2SC(F)(F)F)c(OC2CN(C)C2)c1 [Example 275, 4-{[3-(8-{[(3R,4R)-3-fluorooxan-4-yl]amino}-3-[(trifluoromethyl)sulfanyl]imidazo[1,2-a]pyridin-2-yl)prop-2-yn-1-yl]amino}-N-methyl-3-[(1-methylazetidin-3-yl)oxy]benzamide] | 5 to 8 µM | < 750 nM | < 750 nM | 80 to 90% | < 10 nM | – | – | – | – | – | < 750 nM | –
CN1CC[C@@H](Nc2cccn3c(SC(F)(F)F)c(C#CCNc4ccc(C(=O)N[C@H]5C[C@H](O)C5)cc4)cc23)[C@@H](F)C1 [Example 426] | 8 to 10 µM | < 750 nM | < 750 nM | > 90% | < 10 nM | – | – | – | – | – | < 750 nM | –
C[C@H](NC(=O)c1ccc(NCC#Cc2cc3c(N[C@@H]4CCN(C)C[C@@H]4F)cccn3c2SC(F)(F)F)cc1)[C@@H](C)O [Example 396] | 8 to 10 µM | < 750 nM | < 750 nM | > 90% | < 10 nM | – | – | – | – | – | < 750 nM | –
COc1cc(C(=O)NCC2(O)CC2)ccc1NCC#Cc1cc2c(N[C@@H]3CCN(C)C[C@@H]3F)cccn2c1SC(F)(F)F [Example 419, 4-{[3-(8-{[(3S,4R)-3-fluoro-1-methylpiperidin-4-yl]amino}-3-[(trifluoromethyl)sulfanyl]indolizin-2-yl)prop-2-yn-1-yl]amino}-N-[(1-hydroxycyclopropyl)methyl]-3-methoxybenzamide] | 5 to 8 µM | < 750 nM | < 750 nM | > 90% | < 10 nM | – | – | – | – | – | < 750 nM | –
CNC(=O)c1cnc(OC)c(NCC#Cc2cc3c(N[C@@H]4CCNC[C@@H]4F)cccn3c2SC(F)(F)F)c1 [Example 498] | – | – | – | – | < 10 nM | ≥ 10 µM | < 750 nM | < 750 nM | > 90% | – | – | < 750 nM
CN1CC[C@H](Nc2cccn3c(SC(F)(F)F)c(C#CCNc4ccc(P(C)(C)=O)c5scnc45)cc23)[C@H](F)C1 [Example 389, 7-(dimethylphosphoryl)-N-[3-(8-{[(3R,4S)-3-fluoro-1-methylpiperidin-4-yl]amino}-3-[(trifluoromethyl)sulfanyl]indolizin-2-yl)prop-2-yn-1-yl]-1,3-benzothiazol-4-amine; formic acid] | 8 to 10 µM | < 750 nM | < 750 nM | > 90% | – | – | – | – | – | < 10 nM | < 750 nM | –
CNC(=O)c1ccc(NCC#Cc2cc3c(N[C@@H]4CCN(C5COC5)C[C@@H]4F)cccn3c2SC(F)(F)F)c(OC)c1 [Example 504, 4-{[3-(8-{[(3S,4R)-3-fluoro-1-(oxetan-3-yl)piperidin-4-yl]amino}-3-[(trifluoromethyl)sulfanyl]indolizin-2-yl)prop-2-yn-1-yl]amino}-3-methoxy-N-methylbenzamide] | – | – | – | – | < 10 nM | < 5 µM | < 750 nM | < 750 nM | > 90% | – | – | < 750 nM

The next lines start with results.

IC50 (H1299 p53 R273H; CellTiter-Glo) | IC50 (H1299 p53 Y220C; CellTiter-Glo) | AC50 (p53 Y220C; [2]) | Emax (p53 Y220C; [2]) | Kd ([1]; SPR, p53 Y220C) | IC50 (H1299 p53 R273H) | IC50 (H1299 p53 Y220C) | AC50 (p53 Y220C; [3]) | Emax (p53 Y220C; [4]) | Kd [1] | Structure (SMILES) | IC50 (NUGC3 p53 Y220C; CellTiter-Glo) | IC50 (NUGC3 p53 Y220C)
5 to 8 µM | < 750 nM | < 750 nM | 80 to 90% | < 10 nM | – | – | – | – | – | CN1CCO[C@@H](CNC(=O)c2ccc(NCC#Cc3cc4c(N[C@@H]5CCN(C)C[C@@H]5F)cccn4c3SC(F)(F)F)cc2)C1 [Example 380] | < 750 nM | –
– | – | – | – | < 10 nM | ≥ 10 µM | < 750 nM | < 750 nM | > 90% | – | C[C@@H](O)CNC(=O)c1ccc(OC2COC2)c(NCC#Cc2cc3c(N[C@@H]4CCN(C)C[C@@H]4F)cccn3c2SC(F)(F)F)c1 [Example 486] | – | < 750 nM
≥ 10 µM | 1500 to 3000 nM | 1500 to 3000 nM | 80 to 90% | < 10 nM | – | – | – | – | – | CNS(=O)(=O)c1ccc(OC)c(NCC#Cc2cc3c(N[C@@H]4CCN(C)C[C@@H]4F)nccn3c2SC(F)(F)F)c1 [Example 335] | 1500 to 3000 nM | –
5 to 8 µM | < 750 nM | < 750 nM | > 90% | < 10 nM | – | – | – | – | – | COc1cc(S(C)(=O)=O)ccc1NCC#Cc1cc2c(N[C@@H]3CCNC[C@@H]3F)cccn2c1SC(F)F [Example 394] | < 750 nM | –
≥ 10 µM | < 750 nM | < 750 nM | > 90% | < 10 nM | – | – | – | – | – | COc1nc(P(C)(C)=O)ncc1NCC#Cc1cc2c(N[C@@H]3CCN(C)C[C@@H]3F)cccn2c1SC(F)(F)F [Example 445, 2-(3-{[2-(dimethylphosphoryl)-4-methoxypyrimidin-5-yl]amino}prop-1-yn-1-yl)-N-[(3S,4R)-3-fluoro-1-methylpiperidin-4-yl]-3-[(trifluoromethyl)sulfanyl]indolizin-8-amine] | < 750 nM | –
≥ 10 µM | 750 to 1500 nM | 750 to 1500 nM | 80 to 90% | < 10 nM | – | – | – | – | – | COc1ccc(C(N)=O)nc1NCC#Cc1nn2c(N[C@@H]3CCN(C)C[C@@H]3F)cccc2c1SC(F)(F)F [Example 235] | 1500 to 3000 nM | –
8 to 10 µM | < 750 nM | < 750 nM | > 90% | < 10 nM | – | – | – | – | – | C[C@@H](O)[C@@H](C)NC(=O)c1ccc(NCC#Cc2cc3c(N[C@@H]4CCN(C)C[C@@H]4F)cccn3c2SC(F)(F)F)cc1 [Example 371] | < 750 nM | –
